Experimental findings from patent US8598357B2, “Benzodioxole piperidine compounds” (Hoffmann-La Roche Inc., priority 2011, dated 2013) are described below.

Structures are written as SMILES. Like-named read-outs stand apart in the source and are kept apart here.

Usually Ki stands for the dissociation constant of the complex between target and ligand, obtained from inhibition or displacement.

Experiment [1] has as its target D2 receptor (Homo sapiens (Human), UniProt P14416). Kind of experiment: Radioligand binding assay ([3H]-spiperone) on membranes of HEK293 EBNA cells expressing human D2 receptor. The following applies: human receptor in HEK293 EBNA cells; 0.7 nM [3H]-spiperone.
Description: (§1) HEK293 EBNA cells were transiently transfected with expression plasmids encoding for the human D2 or D3 or for the human 5-HT2A receptor, respectively. The cells were harvested 48 h post-transfection, washed three times with cold PBS and stored at −80° C. prior to use. The pellet was suspended in cold 50 mM Tris-HCl buffer containing 10 mM EDTA (pH 7.4) and was homogenized with a Polytron (Kinematica AG, Basel, Switzerland) for 20-30 sec at 12.000 rpm. After centrifugation at 48.000×g for 30 min at 4° C., the pellet was resuspended in cold 10 mM Tris-HCl buffer containing 0.1 mM EDTA (pH 7.4), homogenized, and centrifuged as above. This pellet was further resuspended in a smaller volume of ice cold 10 mM Tris-HCl buffer containing 0.1 mM EDTA (pH 7.4) and homogenized with a Polytron for 20-30 sec at 12.000 rpm. The protein content of this homogenate was determined with the Bio-Rad (Bradford) Protein Assay (Biorad Laboratories GmbH, München, Germany) according to the instructions of the manufacturer using gamma globulin as the standard. This homogenate was stored at −80° C. in aliquots and thawed immediately prior to use.
(§2) Aliquots of membrane preparations were thawed at RT, resuspended in assay buffer (D2, D3: 50 mM Tris-HCl, 120 mM NaCl, 5 mM MgCl2, 1 mM EDTA, 5 mM KCl, 1.5 mM CaCl2, pH=7.4; 5-HT2A: 50 mM Tris-HCl, 10 mM MgCl2, 1 mM EGTA, pH=7.4), homogenized with a Polytron for 20-30 sec at 12.000 rpm and adjusted to a final concentration of approximately 7.5 μg protein/well (D2, D3) and 15 μg protein/well (5-HT2A), respectively.
(§3) The nonspecific binding was determined with equally composed reaction mixtures in the presence of 10 μM unlabelled spiperone. Per well 45 μl of Microscint 40 (Perkin Elmer, Schwerzenbach, Switzerland) was added, plates for sealed, shaken for 20 min and counted for 3 min on a Topcount Microplate Scintillation Counter (Can berra Packard SA, Ziirich, Switzerland) with quenching correction.
(§4) The CPM value for each duplicate of a concentration of competing compound was averaged (y1), then the % specific binding was calculated according to the equation (((y1−non-specific)/(total binding−non-specific))×100). Graphs were plotted with the % specific binding using XLfit, a curve fitting program that iteratively plots the data using Levenberg-Marquardt algorithm. The single site competition analysis equation used was y=A+((B−A)/(1+((x/C)D))), where y is the % specific binding, A is the minimum y, B is the maximum y, C is the IC50, x is the log 10 of the concentration of the competing compound and D is the slope of the curve (the Hill Coefficient). […] The affinity constant (K) was calculated using the Cheng-Prusoff equation Ki=(IC50/1+([L]/Kd), where [L] is the concentration of radioligand and Kd is the dissociation constant of the radioligand at the receptor as determined by the saturation isotherm.
Experiment [2] concerns the target D3 receptor (Homo sapiens (Human), UniProt P35462). Kind of experiment: Radioligand binding assay ([3H]-spiperone) on membranes of HEK293 EBNA cells expressing human D3 receptor. The following applies: read-out: D3 Ki; human receptor in HEK293 EBNA cells; 0.5 nM [3H]-spiperone.
Description: as §1, §2, §3, §4
For experiment [3], the target named is 5-HT2A receptor (Homo sapiens (Human), UniProt P28223). Put plainly: Radioligand binding assay ([3H]-ketanserin) on membranes of HEK293 EBNA cells expressing human 5-HT2A receptor. The conditions noted are these: read-out: 5HT2A Ki.
The mark [4] stands for this setting: human receptor in HEK293 EBNA cells, 1.1 nM [3H]-ketanserin.

Chain of D3 receptor (P35462 whole entry): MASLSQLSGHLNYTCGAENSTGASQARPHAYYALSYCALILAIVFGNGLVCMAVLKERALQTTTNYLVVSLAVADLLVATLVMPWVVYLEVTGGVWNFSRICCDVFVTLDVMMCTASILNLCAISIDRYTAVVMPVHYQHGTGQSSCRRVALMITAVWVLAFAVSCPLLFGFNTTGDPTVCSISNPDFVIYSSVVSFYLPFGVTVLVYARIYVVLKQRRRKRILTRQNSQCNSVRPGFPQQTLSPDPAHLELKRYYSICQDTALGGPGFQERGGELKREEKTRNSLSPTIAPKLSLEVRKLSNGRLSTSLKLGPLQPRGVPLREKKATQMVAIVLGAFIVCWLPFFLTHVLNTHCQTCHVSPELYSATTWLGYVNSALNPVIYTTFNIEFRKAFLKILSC
Chain of D2 receptor (P14416 whole entry): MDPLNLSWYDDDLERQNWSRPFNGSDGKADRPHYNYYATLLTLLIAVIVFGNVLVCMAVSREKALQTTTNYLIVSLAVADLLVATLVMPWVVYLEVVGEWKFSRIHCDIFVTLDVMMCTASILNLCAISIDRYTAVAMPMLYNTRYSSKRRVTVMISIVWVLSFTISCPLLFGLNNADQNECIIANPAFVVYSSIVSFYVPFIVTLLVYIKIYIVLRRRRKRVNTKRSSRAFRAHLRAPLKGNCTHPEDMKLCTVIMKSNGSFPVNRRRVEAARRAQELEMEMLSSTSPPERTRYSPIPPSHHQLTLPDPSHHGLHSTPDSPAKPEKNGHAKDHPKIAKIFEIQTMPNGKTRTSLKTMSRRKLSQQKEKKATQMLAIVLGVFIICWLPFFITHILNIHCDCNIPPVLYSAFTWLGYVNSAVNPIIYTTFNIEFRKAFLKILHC

With `CO[C@H]1CC[C@H](CC(=O)N[C@H]2CC[C@H](CCN3CCC(c4cccc5c4OCO5)CC3)CC2)CC1` [Example 63, Trans-N-{4-[2-(4-Benzo[1,3]dioxol-4-yl-piperidin-1-yl)-ethyl]-cyclohexyl}-2-(4-methoxy-cyclohexyl)-acetamide], the Ki in experiment [1] came to 361 nM; in experiment [2] it was 8.13 nM; in experiment [3] (setting [4]) it was 34.3 nM.
For `Cc1cc(CC(=O)N[C@H]2CC[C@H](CCN3CCC(c4cccc5c4OCO5)CC3)CC2)on1` [Example 19, Trans-N-{4-[2-(4-Benzo[1,3]dioxol-4-yl-piperidin-1-yl)-ethyl]-cyclohexyl}-2-(3-methyl-isoxazol-5-yl)-acetamide], in that order: 516 nM, 1.19 nM and 19.8 nM.
On to `O=C(CC1COC1)N[C@H]1CC[C@H](CCN2CCC(c3cccc4c3OCO4)CC2)CC1` [Example 29, Trans-N-{4-[2-(4-Benzo[1,3]dioxol-4-yl-piperidin-1-yl)-ethyl]cyclohexyl}-2-oxetan-3-yl-acetamide], for which the Ki in experiment [1] amounted to 258 nM; in experiment [2], 5.19 nM; in experiment [3] (setting [4]), 21.9 nM.
In the case of `N#CCC(=O)N[C@H]1CC[C@H](CCN2CCC(c3cccc4c3OCO4)CC2)CC1` [Example 20, Trans-N-{-4-[2-(4-Benzo[1,3]dioxol-4-yl-piperidin-1-yl)-ethyl]-cyclohexyl}-2-cyano-acetamide], the Ki in experiment [1] amounted to 203 nM; in experiment [2], 3.12 nM; in experiment [3] it was 22.4 nM.
Consider `O=C(CO)N[C@H]1CC[C@H](CCN2CCC(c3cccc4c3OCO4)CC2)CC1` [Example 65, Trans-N-{4-[2-(4-Benzo[1,3]dioxol-4-yl-piperidin-1-yl)-ethyl]-cyclohexyl}-2-hydroxy-acetamide], for which the Ki in experiment [1] was found to be 298 nM; in experiment [2] it was 9.09 nM; in experiment [3] (setting [4]) it was 21.4 nM.
On the same counts, the results for `CC1(C(=O)N[C@H]2CC[C@H](CCN3CCC(c4cccc5c4OCO5)CC3)CC2)COC1` [Example 62, 3-Methyl-oxetane-3-carboxylic acid-trans-N-{4-[2-(4-benzo[1,3]dioxol-4-yl-piperidin-1-yl)-ethyl]-cyclohexyl}-amide] are 225 nM, 39 nM and 22.1 nM.
Take `O=C(N[C@H]1CC[C@H](CCN2CCC(c3cccc4c3OCO4)CC2)CC1)c1ccc(F)cc1` [Example 37, Trans-N-{4-[2-(4-Benzo[1,3]dioxol-4-yl-piperidin-1-yl)-ethyl]-cyclohexyl}-4-fluoro-benzamide]: the figures for the Ki in experiment [1], in experiment [2] and in experiment [3] were 234 nM, 4.89 nM and 13.1 nM, respectively.
With `CO[C@H](C)C(=O)N[C@H]1CC[C@H](CCN2CCC(c3cccc4c3OCO4)CC2)CC1` [Example 34, Trans-(R)—N-{4-[2-(4-Benzo[1,3]dioxol-4-yl-piperidin-1-yl)-ethyl]-cyclohexyl}-2-methoxy-propionamide], the Ki in experiment [1] turned out to be 504 nM; in experiment [2] it was 27.8 nM; in experiment [3] (setting [4]), 9.57 nM.
For `O=C(CC1CCOCC1)N[C@H]1CC[C@H](CCN2CCC(c3cccc4c3OCO4)CC2)CC1` [Example 53, Trans-N-{4-[2-(4-Benzo[1,3]dioxol-4-yl-piperidin-1-yl)-ethyl]-cyclohexyl}-2-(tetrahydro-pyran-4-yl)-acetamide], the Ki in experiment [1] is 352 nM; in experiment [2], 8.81 nM; in experiment [3] (setting [4]) it was 29.6 nM.
As for `O=C(N[C@H]1CC[C@H](CCN2CCC(c3cccc4c3OCO4)CC2)CC1)c1ccccc1` [Example 9, Trans-N-{4-[2-(4-Benzo[1,3]dioxol-4-yl-piperidin-1-yl)-ethyl]-cyclohexyl}-benzamide], the Ki in experiment [1] turned out to be 120 nM; in experiment [2], 3.63 nM; in experiment [3] it was 5.14 nM.
For `O=C(CC1CCCO1)N[C@H]1CC[C@H](CCN2CCC(c3cccc4c3OCO4)CC2)CC1` (stereo partly drawn) [Example 6, Trans-N-{4-[2-(4-Benzo[1,3]dioxol-4-yl-piperidin-1-yl)-ethyl]-cyclohexyl}-2-(tetrahydro-furan-2-yl)-acetamide], the inhibition constant (Ki) in experiment [1] came out at 389 nM; in experiment [2], 9.06 nM; in experiment [3], 21 nM.
For `O=C(N[C@H]1CC[C@H](CCN2CCC(c3cccc4c3OCO4)CC2)CC1)C(O)C(F)(F)F` (stereo partly drawn) [Example 12, Trans-N-{4-[2-(4-Benzo[1,3]dioxol-4-yl-piperidin-1-yl)-ethyl]-cyclohexyl}-3,3,3-trifluoro-2-hydroxy-propionamide], in that order: 236 nM, 8.45 nM and 14 nM.
In the case of `O=C(C[C@@H]1CCCCO1)N[C@H]1CC[C@H](CCN2CCC(c3cccc4c3OCO4)CC2)CC1` [Example 40, Trans-N-{4-[2-(4-Benzo[1,3]dioxol-4-yl-piperidin-1-yl)-ethyl]-cyclohexyl}-2-(S)-tetrahydro-pyran-2-yl-acetamide], the Ki in experiment [1] was 422 nM; in experiment [2] it was 9 nM; in experiment [3], 27.9 nM.
In the case of `O=C(N[C@H]1CC[C@H](CCN2CCC(c3cccc4c3OCO4)CC2)CC1)C1CCOCC1` [Example 48, Tetrahydro-pyran-4-carboxylic acid-trans-{4-[2-(4-benzo[1,3]dioxol-4-yl-piperidin-1-yl)-ethyl]-cyclohexyl}-amide], the Ki in experiment [1] was determined as 184 nM; in experiment [2], 13.8 nM; in experiment [3] (setting [4]) it was 9.52 nM.
`CCCC(=O)N[C@H]1CC[C@H](CCN2CCC(c3cccc4c3OCO4)CC2)CC1` [Example 25, Trans-N-{4-[2-(4-Benzo[1,3]dioxol-4-yl-piperidin-1-yl)-ethyl]-cyclohexyl}-butyramide]: the figures for the Ki in experiment [1], in experiment [2] and in experiment [3] (setting [4]) were 277 nM, 5.7 nM and 35.8 nM, respectively.
On the same counts, the results for `CN1CCN(CC(=O)N[C@H]2CC[C@H](CCN3CCC(c4cccc5c4OCO5)CC3)CC2)CC1` [Example 68, Trans-N-{4-[2-(4-Benzo[1,3]dioxol-4-yl-piperidin-1-yl)-ethyl]-cyclohexyl}-2-(4-methylpiperazin-1-yl)-acetamide] are 104 nM, 19.8 nM and 31 nM.
For `CC(C)(O)CC(=O)N[C@H]1CC[C@H](CCN2CCC(c3cccc4c3OCO4)CC2)CC1` [Example 35, Trans-N-{4-[2-(4-Benzo[1,3]dioxol-4-yl-piperidin-1-yl)-ethyl]-cyclohexyl}-3-hydroxy-3-methyl-butyramide], in that order: 282 nM, 5.92 nM and 26.1 nM.
`COCCC(=O)N[C@H]1CC[C@H](CCN2CCC(c3cccc4c3OCO4)CC2)CC1` [Example 2, Trans-N-{4-[2-(4-Benzo[1,3]dioxol-4-yl-piperidin-1-yl)-ethyl]-cyclohexyl}-3-methoxy-propionamide]: the Ki in experiment [1] stood at 427 nM; in experiment [2] it was 5.82 nM; in experiment [3] (setting [4]), 38.2 nM.
`O=C(N[C@H]1CC[C@H](CCN2CCC(c3cccc4c3OCO4)CC2)CC1)C1CCOC1` (stereo partly drawn) [Example 47, Tetrahydro-furan-3-carboxylic acid-trans-{4-[2-(4-benzo[1,3]dioxol-4-yl-piperidin-1-yl)-ethyl]-cyclohexyl}-amide]: the Ki stood at 165 nM in experiment [1], 7.61 nM in experiment [2] and 24.1 nM in experiment [3] (setting [4]).
On the same counts, the results for `O=C(N[C@H]1CC[C@H](CCN2CCC(c3cccc4c3OCO4)CC2)CC1)C1COc2ccccc2C1` (stereo partly drawn) [Example 60, Chroman-3-carboxylic acid-trans-N-{4-[2-(4-benzo[1,3]dioxol-4-yl-piperidin-1-yl)-ethyl]-cyclohexyl}-amide] are 1050 nM, 6.73 nM and 21.8 nM.
For `Cc1ccc(C(=O)N[C@H]2CC[C@H](CCN3CCC(c4cccc5c4OCO5)CC3)CC2)cn1` [Example 15, Trans-N-{4-[2-(4-Benzo[1,3]dioxol-4-yl-piperidin-1-yl)-ethyl]-cyclohexyl}-6-methyl-nicotinamide], in that order: 133 nM, 11.6 nM and 11.5 nM.
Take `O=S(=O)(N[C@H]1CC[C@H](CCN2CCC(c3cccc4c3OCO4)CC2)CC1)c1ccccc1` [Example 70, Trans-N-{4-[2-(4-Benzo[1,3]dioxol-4-yl-piperidin-1-yl)-ethyl]cyclohexyl}-benzenesulfonamide]: the values for the Ki in experiment [1], in experiment [2] and in experiment [3] were 63.5 nM, 3.65 nM and 52.2 nM, respectively.
With `N#Cc1ccc(C(=O)N[C@H]2CC[C@H](CCN3CCC(c4cccc5c4OCO5)CC3)CC2)cc1` [Example 14, Trans-N-{4-[2-(4-Benzo[1,3]dioxol-4-yl-piperidin-1-yl)-ethyl]-cyclohexyl}-4-cyano-benzamide], the inhibitory constant (Ki) in experiment [1] turned out to be 153 nM; in experiment [2], 7.79 nM; in experiment [3] (setting [4]), 9.02 nM.
For `CC(=O)N[C@H]1CC[C@H](CCN2CCC(c3cccc4c3OCO4)CC2)CC1` [Example 1, Trans-N-{4-[2-(4-Benzo[1,3]dioxol-4-yl-piperidin-1-yl)-ethyl]-cyclohexyl}-acetamide], in that order: 254 nM, 4.99 nM and 23.9 nM.
With `O=C(N[C@H]1CC[C@H](CCN2CCC(c3cccc4c3OCO4)CC2)CC1)C1CCS(=O)(=O)C1` (stereo partly drawn) [Example 52, 1,1-Dioxo-tetrahydro-thiophene-3-carboxylic acid-trans-{4-[2-(4-benzo[1,3]dioxol-4-yl-piperidin-1-yl)-ethyl]-cyclohexyl}-amide], the Ki in experiment [1] stood at 130 nM; in experiment [2], 16.3 nM; in experiment [3], 4.57 nM.
As for `CO[C@@H](C)C(=O)N[C@H]1CC[C@H](CCN2CCC(c3cccc4c3OCO4)CC2)CC1` [Example 33, Trans-(S)—N-{4-[2-(4-Benzo[1,3]dioxol-4-yl-piperidin-1-yl)-ethyl]-cyclohexyl}-2-methoxy-propionamide], the values for the Ki in experiment [1], in experiment [2] and in experiment [3] (setting [4]) were 464 nM, 50.3 nM and 29.1 nM, respectively.
